Source: patent publication US20230357301A1, “HEXOSE DERIVATIVES, PREPARATION AND USES THEREOF” (Faculdade de Ciencias da Universidade de Lisboa, priority 2014, published 2023)
Values belong to the compound of their own block, whether it stands above or below them.

What was measured:
lysozyme = target: T1, lysozyme (Gallus gallus, UniProt P00698); experiment: DSF thermal stability assay, lysozyme; design: species or system hen
T1 construct: hen egg white lysozyme was purchased from Sigma-Aldrich; purchased Sigma-Aldrich; host or cells: hen egg white
T1 sequence (P00698 19-147): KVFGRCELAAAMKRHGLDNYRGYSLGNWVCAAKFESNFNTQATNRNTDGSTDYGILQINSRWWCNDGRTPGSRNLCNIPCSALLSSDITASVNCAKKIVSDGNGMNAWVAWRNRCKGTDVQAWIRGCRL
Method: The DSF based stability assays were performed at each protein working pH and the melting temperatures (TM) values determined in the absence (control experiments) and in the presence of solutes, and at different solute concentrations. The denaturation curves for each assay were analysed, and the melting temperatures determined by the calculation of the first derivative, which corresponds to the midpoint temperature of the protein-unfolding transition. […] The unfolding temperature shifts (ΔTM) were calculated by comparing the TM values obtained in the presence of solutes with the TM values of the control experiments (absence of solutes).
Mitochondrial malate dehydrogenase from pig heart (MDII) was purchased from Roche, and hen egg white lysozyme was purchased from Sigma-Aldrich. These enzymes were used without further purification.
The protein melting temperature (TM) determination was performed by monitoring protein unfolding with the fluoroprobe SYPRO Orange dye (Molecular Probes), which although completely quenched in aqueous environment, emits fluorescence upon binding to protein hydrophobic patches. Such increase in fluorescence can be measured as a function of temperature using Differential Scanning Fluorimetry. In a typical assay with a total volume of 20 µL, a protein concentration from 0.14 to 0.21 mg/mL, and a dye concentration of 5 fold were used to guarantee the best signal to noise ratio. Protein stock solutions of SNase or MDH were prepared in phosphate buffer (20 mM of sodium phosphate, pH 7.6), and lysozyme was prepared in citrate buffer (40 mM sodium citrate, 110 mM NaCl, pH 6.0). These stock solutions were extensively dialyzed against the same buffer before the assays. […] Solute solutions were prepared in water with the respective concentrations. […] Fluorescence intensities versus temperature are used to calculate the protein melting temperature (TM) by determining the first derivative (d(Rfu)/dT) to extract the exact transition inflection point.

porcine insulin = target: T2, porcine insulin (Sus scrofa, UniProt P01315); experiment: DSF thermal stability assay, porcine insulin; conditions: insulin 129 µM, solute 0.1 and 0.25 M (FIG. 11)
T2 construct: solutions comprising porcine insulin at a concentration of 129 µM
T2 sequence (P01315 25-54 limits assumed): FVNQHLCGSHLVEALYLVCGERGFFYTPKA
T2 sequence (P01315 88-108 limits assumed): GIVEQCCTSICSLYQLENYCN

[1] = target: T3, staphylococcal nuclease (SNase) (Staphylococcus aureus, UniProt P00644); experiment: DSF thermal stability assay, staphylococcal nuclease; conditions: solute 0.1, 0.25 and 0.5 M (FIG. 8)
T3 construct: Recombinant staphylococcal nuclease A (SNase) was produced and purified from Escherichia coli cells; made in house; host or cells: Escherichia coli
Method: (§1) The DSF based stability assays were performed at each protein working pH and the melting temperatures (TM) values determined in the absence (control experiments) and in the presence of solutes, and at different solute concentrations. The denaturation curves for each assay were analysed, and the melting temperatures determined by the calculation of the first derivative, which corresponds to the midpoint temperature of the protein-unfolding transition. In the absence of solutes, malate dehydrogenase (MDH), staphylococcal nuclease (SNase) and lysozyme have melting temperatures (TM) of 50, 52 and 71° C. respectively. The unfolding temperature shifts (ΔTM) were calculated by comparing the TM values obtained in the presence of solutes with the TM values of the control experiments (absence of solutes).
(§2) Mannosylglycerate (MG), glucosylglycerate (GG), glucosylglucosylglycerate (GGG), mannosyl glycolate (MGly) and mannosyl lactate (ML) were obtained by chemical synthesis as described in literature (Costa 1998). New synthetic compounds were obtained by chemical synthesis as described in Example 1. […] Purity and concentration of the compounds was assessed by ^1H NMR spectra obtained at 500 MHz spectrometer in D2O. For quantification purposes, spectra were acquired with a repetition delay of 60 s with formate as concentration standard. […]

[2] = target: T4, malate dehydrogenase (MDH) (Sus scrofa, UniProt P00346); experiment: DSF thermal stability assay, malate dehydrogenase; design: species or system pig; conditions: solute 0.1, 0.25 and 0.5 M (FIG. 9)
T4 construct: Mitochondrial malate dehydrogenase from pig heart (MDII) was purchased from Roche; purchased Roche; host or cells: pig heart
T4 sequence (P00346 25-338): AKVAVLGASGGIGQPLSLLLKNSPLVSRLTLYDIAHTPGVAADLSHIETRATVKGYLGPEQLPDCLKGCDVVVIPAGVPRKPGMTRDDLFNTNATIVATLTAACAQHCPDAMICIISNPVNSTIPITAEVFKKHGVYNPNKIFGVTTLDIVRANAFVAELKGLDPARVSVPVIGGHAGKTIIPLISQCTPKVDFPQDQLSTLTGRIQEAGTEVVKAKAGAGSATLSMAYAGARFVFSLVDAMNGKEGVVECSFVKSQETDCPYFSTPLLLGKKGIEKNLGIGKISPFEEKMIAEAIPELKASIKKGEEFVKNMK
Method: as §1, §2

Compound: CC(=O)[O-].[K+] [AcOK, potassium acetate]
stabilising effect of AcOK alone on lysozyme (lysozyme; AcOK alone, concentration dependence (FIG. 6)): not a good stabiliser, stabilising only at high salt concentrations
stabilising effect of AcOK on lysozyme in conjugation with hypersolutes (lysozyme; AcOK with hypersolutes (0.5 M) (FIG. 6)): able to enhance their stabilisation properties

increment in melting temperature of porcine insulin (porcine insulin): highest increases in melting temperature
Compound: O=C([O-])COC1O[C@H](CO)[C@@H](O)[C@H](O)[C@H]1O.[K+] (stereo partly drawn) [glucosyl glycolate, Potassium 2-(α/β-D-glucopyranosyl) acetate]

Compound: Potassium (2S) -2-0- (α/β-D-galactopyranosyl)-2-hydroxysuccinate [α-galactosyl malate]
dependence of SNase melting temperature on the concentration of solutes [1]: clearly the best stabiliser
dependence of lysozyme melting temperature on the concentration of solutes (lysozyme; solute 0.1, 0.25 and 0.5 M (FIG. 10)): clearly the best stabiliser

increment in melting temperature of porcine insulin (porcine insulin): highest increases in melting temperature
dependence of MDH melting temperature on the concentration of solutes [2]: the best stabiliser
Compound: Potassium (2S)-2-O-(α/β-D-glucopyranosyl)-2-hydroxysuccinate [glucosyl malate]
